Measurements from US8030547B2, “Gene coding for acetolactate synthase” (priority 2002, dated 2011).

What was measured:
[1] = target: T1, mutant ALS protein of Sr line (Oryza sativa subsp. japonica, UniProt Q6K2E8); assay: Herbicide sensitivity of partially purified ALS protein (ALS activity inhibition), Sr line; assay type: biochemical, Oryza sativa var. Kinmaze; conditions: read-out: I50 (nM) Sr; partially purified ALS, 30° C., probit analysis
T1 construct: other: partially purified ALS, 30° C., probit analysis
T1 sequence (Q6K2E8 whole entry W548L/S627I, form open): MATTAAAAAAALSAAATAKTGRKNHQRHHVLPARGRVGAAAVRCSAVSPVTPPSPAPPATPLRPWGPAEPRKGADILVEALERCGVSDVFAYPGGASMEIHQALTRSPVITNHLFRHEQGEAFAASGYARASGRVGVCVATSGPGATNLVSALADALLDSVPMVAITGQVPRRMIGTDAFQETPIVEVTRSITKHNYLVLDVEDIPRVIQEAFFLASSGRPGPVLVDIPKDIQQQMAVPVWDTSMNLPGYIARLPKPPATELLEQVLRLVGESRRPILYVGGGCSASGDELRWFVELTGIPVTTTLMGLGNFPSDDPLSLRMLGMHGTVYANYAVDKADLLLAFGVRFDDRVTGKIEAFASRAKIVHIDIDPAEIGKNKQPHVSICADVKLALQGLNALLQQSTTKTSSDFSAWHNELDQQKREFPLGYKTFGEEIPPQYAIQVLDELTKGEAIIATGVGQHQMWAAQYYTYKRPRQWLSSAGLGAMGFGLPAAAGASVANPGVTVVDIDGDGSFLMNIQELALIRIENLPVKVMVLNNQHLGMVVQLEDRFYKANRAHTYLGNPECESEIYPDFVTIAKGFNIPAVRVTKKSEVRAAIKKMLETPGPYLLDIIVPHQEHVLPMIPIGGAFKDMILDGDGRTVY
Description: (§1) First, 200 g or more of resistant mutant was prepared by a liquid culture method (no supplementation with bispyribac-sodium), using a composition as shown in Table 3 excluding Gelrite. Then, about 150 g of the resistant mutant was homogenized using Hiscotron in a volume of buffer-1 [100 mM potassium phosphate buffer (pH 7.5) containing 20% (v/v) glycerol, […] thiamin pyrophosphate (TPP), 10 μM flavin adenine dinucleotide (FAD), 0.5 mM MgCl2, and a volume of polyvinyl polypyrrolidone one-tenth that of tissue volume] 3-fold greater than tissue volume. The homogenate was filtered through nylon gauze, and then centrifuged at 15000×g for 20 minutes. Ammonium sulfate was added to the centrifuged supernatant to 50% saturation, and then allowed to stand in ice for approximately 1 hour. The mixture was again centrifuged at 15000×g for 20 minutes, and then the precipitated fraction was dissolved in approximately 30 ml of buffer-2 [10 mM Tris hydrochloric acid buffer (pH 7.5) containing 20% (v/v) glycerol, 0.5 mM TPP and 0.5 mM MgCl2]. The mixture was again centrifuged at 15000×g for 20 minutes, and then the supernatant fraction was applied to a Sephadex G-25 (Amersham Bioscience). About 40 ml of the fraction that had passed through the column was collected as a crude enzyme solution.
(§2) Next, the protein concentration of the crude enzyme solution was measured by the Bradford method according to the manual of Bio-Rad Protein Assay. The crude enzyme solution was then filtered through a Whatman filter (Whatman), and then the crude enzyme solution in an appropriate protein amount (10 to 15 ml) was applied to three vertically-connected HiTrap Q columns (Amersham Bioscience) using a FPLC device (Amersham Bioscience). After protein component was adsorbed using HiTrap Q, unadsorbed fractions were washed out using buffer-2 having a volume 3 to 5 fold greater than the bed volume. Then, the adsorbed protein component was eluted using an eluate having a volume 10 fold greater than the bed volume (150 ml). Here, the eluate was prepared by dissolving KCl with a linear concentration gradient (0 to 0.4 M) into buffer-2. The eluate containing the eluted protein component was apportioned, 5 ml each, into a plurality of test tubes for apportioning. Further, to stabilize ALS protein contained in the eluted protein component, 0.5 ml of buffer-2 containing 20 mM sodium pyruvate had been previously added to each test tube for apportioning.
(§3) ALS activity resulting from the mutant ALS protein contained in the eluted fractions apportioned into each test tube for apportioning was measured as follows. A reaction solution to be used in a measurement reaction was prepared by mixing an eluted fraction to be measured with a solution comprising 20 mM sodium pyruvate, 0.5 mM TPP, 0.5 mM MgCl2, 10 μM FAD and 20 mM potassium phosphate buffer (pH 7.5). One ml of this reaction solution was used. After the eluted fraction to be measured was added, the measurement reaction was performed at 30° C. for 40 to 60 minutes. Then, the reaction was stopped by addition of 0.1 ml of 6N sulfuric acid (or 0.25 N sodium hydroxide).
(§4) After the reaction was stopped, the reaction solution was incubated at 60° C. for 10 minutes, thereby converting acetolactate contained in the reaction solution to acetoin.
(§5) Then, to quantify acetoin contained in the reaction solution, 1 ml of 0.5% (w/v) creatine and 1 ml of 5% (w/v) α-naphthol dissolved in 2.5 N sodium hydroxide was added to the reaction solution, followed by incubation at 37° C. for 10 minutes. Acetoin was then quantified by color comparison of the absorbance (at 525 nm) of the reaction solution, thereby evaluating ALS activity. In addition, since the reaction solution contained a small amount of sodium pyruvate, reaction time 0 was used as control.
(§6) Using the enzyme solution containing the mutant ALS protein, sensitivity of the mutant ALS protein to bispyribac-sodium, chlorsulfuron and imazaquin was examined. […]

[2] = tested on: mutant ALS protein of Sr line; assay: as above; assay type: biochemical, Oryza sativa var. Kinmaze; conditions: I50 of the resistant mutant divided by I50 of the wild type
Description: as §1, §2, §3, §4, §5, §6

[3] = target: T2, mutant ALS protein of Rb line (Oryza sativa subsp. japonica, UniProt Q6K2E8, P171H, form not given); assay: Herbicide sensitivity of partially purified ALS protein (ALS activity inhibition), Rb line; assay type: biochemical, Oryza sativa var. Kinmaze; conditions: read-out: I50 (nM) Rb; partially purified ALS, 30° C., probit analysis
T2 construct: other: partially purified ALS, 30° C., probit analysis
T2 sequence (Q6K2E8 whole entry P171H/W548L, form open): as the sequence (Q6K2E8 whole entry W548L/S627I, form open) above, with P171H, I627S counted along it
Description: as §1, §2, §3, §4, §5, §6

[4] = tested on: mutant ALS protein of Rb line; assay: as above; assay type: biochemical, Oryza sativa var. Kinmaze; conditions: I50 of the resistant mutant divided by I50 of the wild type
Description: as §1, §2, §3, §4, §5, §6

[5] = tested on: Rb line resistant mutant rice culture cells; assay: Growth of rice culture cells (relative wet weight of callus) in the presence of herbicide, Rb line; assay type: cell-based, Oryza sativa var. Kinmaze
Description: (§7) Next, endosperm portions were removed from the callus induced on the medium, and then subculture was performed. Then, part of the obtained calli was sub-cultured, that is, cultured successively once per two weeks in a liquid medium (the composition is the same as in that shown in Table 3, but not supplemented with Gelrite) supplemented with 1 μM bispyribac-sodium (one type of PC herbicides). Two to 6 weeks later the culture cells started to wither. About 2 months later, a plurality of non-discolored cell masses that were thought to be conducting cell division were obtained from among culture cell populations most of which had died and became discolored brown. These cell masses were isolated and cultured, so that a plurality of cell lines that can proliferate in the presence of 2 μM bispyribac-sodium were obtained. […]
(§8) Approximately 1.5 g (wet weight) of the resistant mutant was transplanted into a 200 ml Erlenmeyer flask supplemented with 50 ml of a MS-2,4-D liquid medium and bispyribac-sodium at a certain concentration, followed by culturing at approximately 27° C. for a certain period. The wet weight of the callus was measured periodically. The relative amount of increase was determined based on the wet weight of the transplanted resistant mutant. In addition, the experiment was performed three times with different bispyribac-sodium concentrations, and the standard error was calculated. […]

[6] = tested on: Sr line resistant mutant rice culture cells; assay: Growth of rice culture cells (relative wet weight of callus) in the presence of herbicide, Sr line; assay type: cell-based, Oryza sativa var. Kinmaze
Description: as §7, §8

[7] = group supplemented with 10 μM, day 8 or 12

## CC(C)C1(C)N=C(c2nc3ccccc3cc2C(=O)O)NC1=O (stereo not shown) [imazaquin]
[1]
  IC50: 16700 nM
[2]
  RS ratio Sr: 11.3
[3]
  IC50: 609000 nM
[4]
  RS ratio Rb: 411

## COc1nc(C)nc(NC(=O)NS(=O)(=O)c2ccccc2Cl)n1 [chlorsulfuron]
[1]
  IC50: 92.8 nM
[2]
  RS ratio Sr: 5.36
[5]; day 8 or 10
  growth of Rb line on addition of herbicide (relative weight): not inhibited so much
[6]; day 8 or 10
  growth of Sr line on addition of herbicide (relative weight): not inhibited so much
[3]
  IC50: 32000 nM
[4]
  RS ratio Rb: 1850

## COc1cc(OC)nc(Oc2cccc(Oc3nc(OC)cc(OC)n3)c2C(=O)O)n1 [bispyribac-sodium]
[1]
  IC50: 421 nM
[2]
  RS ratio Sr: 74.8
[5]; [7]
  growth of Rb line (relative weight): almost none of the growth
[6]; [7]
  growth of Sr line (relative weight): almost none of the growth
[3]
  IC50: 247000 nM
[4]
  RS ratio Rb: 43900
